Measurements as given in PubChem BioAssay AID2060886 (Molecular Pharmacology Branch, DTP, NCI, 2025).

Tested on: 653999-131-R-J2-PDC complex spheroids, growth inhibition
Assay: Anticancer human tumor 653999-131-R-J2-PDC patient-derived lung adenocarcinoma cell line growth inhibition [RAS]
Details: for IC50: curve of first compound; for viability, T/C: stronger effect = lower value
Excerpt: RAS pathway inhibitors in Combinations in Complex Spheroids
A high-throughput screen of multi-cell type tumor spheroids was designed to identify active combinations of RAS pathway inhibitors and targeted small molecules. Complex spheroids include a stromal component modeled by human endothelial cells (HUVEC) and fibroblasts modeled by human mesenchymal stem cells (MSCs). The concentration ranges selected for each drug and investigational agent were based upon clinically achievable concentrations if the clinical Cmax of the agent was known.
Compounds. The drugs and investigational agents: abemaciclib (NSC768073), cobimetinib (NSC768068), divarasib (GDC6063, NSC841802), docetaxel (NSC628503), GDC-1971 (RLY-1971, NSC841576), gemcitabine (NSC613327), inavolisib (NSC800729), ipatasertib (NSC767898), KB-0742 (NSC834161), MRTX-1133 (NSC836407), osimertinib (NSC779217), RMC-4630 (NSC839698), RMC-6236 (NSC851965), RMC-6291 (NSC852671), Ro-3306 (NSC812927), sapanisertib (NSC764658), SN-38 (NSC673596), staurosporine (NSC755774), SY5609 (NSC837396), and tovorafenib (DAY101, NSC766906), were obtained from the National Cancer Institute (NCI) Developmental Therapeutics Program Chemical Repository. The FDA-approved anticancer drug set is available from the NCI Developmental Therapeutics Program. […] The stock solutions were prepared in dimethyl sulfoxide (DMSO, Sigma-Aldrich, St. Louis, MO, cat. D2650) at 800-fold the tested concentration and stored at -70 degrees C prior to their use. All drugs and investigational agents were tested over a range starting from a high concentration at or near the clinical Cmax and decreasing in half-log increments. If the clinical Cmax for an agent had not been determined, the highest concentration tested was 10 microM.
Cell Culture. All cells were maintained in an incubator at 37 degrees C and 5% CO2 with 95% humidity. The PDC lines were cultured according to standard operating procedures established by the NCI PDMR. All PDCs were thawed and cultured in Matrigel-coated flasks prepared with a working solution of 1X Ham's F-12 nutrient mix, without supplementation (Invitrogen, Waltham, MA, cat. 11765054), 100 U/mL penicillin-streptomycin (Invitrogen, cat. 15140122), and 2.5% Matrigel (Corning Inc., Corning, NY, cat. 354248) for the first three passages. The 362531-283-R-J2-PDC and 782815-120-R-J1-PDC lines were cultured in 6C/Colon 1B media, which includes advanced DMEM/F-12 (Thermo Fisher Scientific, cat. 12634028), 10 mM HEPES (Thermo Fisher Scientific, cat. 15630080), 1X GlutaMAX supplement (Thermo Fisher Scientific, cat. 35050061), 0.1 mg/mL primocin (InvivoGen, San Diego, CA, cat. ant-pm-2), 10% defined fetal bovine serum, heat inactivated (HyClone Laboratories Inc., Logan, UT, cat. SH30070.03HI), 50% L-WRN conditioned media (ATCC, cat. CRL-3276), 1.25 mM N-Acetyl-L-cysteine (Sigma-Aldrich, cat. A9165), 10 mM nicotinamide (Sigma-Aldrich, cat. N0636), 1X B-27 supplement (Thermo Fisher Scientific, cat. 17504044), 1X N-2 supplement (Thermo Fisher Scientific, cat. 17502048), 50 ng/mL human EGF (Thermo Fisher Scientific, cat. PHG0311), and 10 microM Y-27632 dihydrochloride (Tocris Bioscience, cat. 1254). The K12877-001-R-J1-PDC line was cultured in 6I media, which includes all 6C/Colon 1B media plus 10 ng/mL human FGF-10 (PeproTech, cat. 100-26), 1 ng/mL human FGF-2 (PeproTech, cat. 100-18B), 1 µM prostaglandin E2 (Tocris Bioscience, cat. 2296), […] hydrocortisone (Sigma-Aldrich, cat. H4001), and […] bovine insulin (Sigma-Aldrich, cat. I6634). The K86415-001-R-J1-PDC line was cultured in 6D media, which includes all 6C/Colon 1B media components minus the L-WRN conditioned media. The 485176-168-R4-J1-PDC was cultured in PANC media, which includes all 6C/Colon 1B media plus 100 ng/mL human FGF-10 (PeproTech, cat. 100-26), 500 nM SB-431542 (Selleckchem, cat. S1067), and 10 nM gastrin (Tocris Bioscience, cat. 3006). […]
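Further: spheroids exposed to the agents for seven days before the readout.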

In the case of CC1(O)CCCC1n1c(=O)c(C(F)F)cc2cnc(NC3CCN(S(C)(=O)=O)CC3)nc21 (configuration not stated) + CCn1c(-c2cccnc2C(C)OC)c2c3cc(ccc31)N1CCOC(CC(NC(=O)C(C(C)C)N(C)C(=O)C3(F)CCN(C(=O)C#CC(C)(C)N(C)C)CC3)C(=O)N3CCCC(N3)C(=O)OCC(C)(C)C2)C1, the IC50 (second compound 0.000949 µM) is reported as > 10 µM, the IC50 (second compound 0.003 µM) is reported as 6.61 µM and the IC50 (second compound 0.00949 µM) is reported as 6.6 µM. For the same molecule, the IC50 (second compound 0.03 µM) was > 10 µM, the IC50 (second compound 0.0949 µM) was 6.91 µM and the IC50 (second compound 0.3 µM) was 6.62 µM. The viability, T/C (second compound 0.000949 µM, first compound 0.0316 µM) was 88.3%, the viability, T/C (second compound 0.000949 µM, first compound 0.1 µM) was 71.1% and the viability, T/C (second compound 0.000949 µM, first compound 0.316 µM) was 67.8%. For the same molecule, the viability, T/C (second compound 0.000949 µM, first compound 1 µM) was 59.2%, the viability, T/C (second compound 0.000949 µM, first compound 3.16 µM) was 81.2% and the viability, T/C (second compound 0.000949 µM, first compound 10 µM) was 47.2%. It also gave a viability, T/C (second compound 0.003 µM, first compound 0.0316 µM) of 86.8%, a viability, T/C (second compound 0.003 µM, first compound 0.1 µM) of 71.4% and a viability, T/C (second compound 0.003 µM, first compound 0.316 µM) of 73.4%. For the same molecule, the viability, T/C (second compound 0.003 µM, first compound 1 µM) was 62.5%, the viability, T/C (second compound 0.003 µM, first compound 3.16 µM) was 71.7% and the viability, T/C (second compound 0.003 µM, first compound 10 µM) was 39.6%. It also gave a viability, T/C (second compound 0.00949 µM, first compound 0.0316 µM) of 97.2%, a viability, T/C (second compound 0.00949 µM, first compound 0.1 µM) of 69.3% and a viability, T/C (second compound 0.00949 µM, first compound 0.316 µM) of 78.6%. The viability, T/C (second compound 0.00949 µM, first compound 1 µM) was 79.8%, the viability, T/C (second compound 0.00949 µM, first compound 3.16 µM) was 79.5% and the viability, T/C (second compound 0.00949 µM, first compound 10 µM) was 33.4%. It also gave a viability, T/C (second compound 0.03 µM, first compound 0.0316 µM) of 92.6%, a viability, T/C (second compound 0.03 µM, first compound 0.1 µM) of 62.1% and a viability, T/C (second compound 0.03 µM, first compound 0.316 µM) of 60.9%. The viability, T/C (second compound 0.03 µM, first compound 1 µM) was 63.8%, the viability, T/C (second compound 0.03 µM, first compound 3.16 µM) was 83.3% and the viability, T/C (second compound 0.03 µM, first compound 10 µM) was 42.5%. The viability, T/C (second compound 0.0949 µM, first compound 0.0316 µM) was 86.8%, the viability, T/C (second compound 0.0949 µM, first compound 0.1 µM) was 73.4% and the viability, T/C (second compound 0.0949 µM, first compound 0.316 µM) was 64.4%. The viability, T/C (second compound 0.0949 µM, first compound 1 µM) was 65.4%, the viability, T/C (second compound 0.0949 µM, first compound 3.16 µM) was 85.9% and the viability, T/C (second compound 0.0949 µM, first compound 10 µM) was 38.1%. For the same molecule, the viability, T/C (second compound 0.3 µM, first compound 0.0316 µM) was 84.3%, the viability, T/C (second compound 0.3 µM, first compound 0.1 µM) was 62.3% and the viability, T/C (second compound 0.3 µM, first compound 0.316 µM) was 72%. For the same molecule, the viability, T/C (second compound 0.3 µM, first compound 1 µM) was 68.9%, the viability, T/C (second compound 0.3 µM, first compound 3.16 µM) was 88.9% and the viability, T/C (second compound 0.3 µM, first compound 10 µM) was 36.1%.
